Source: PubChem BioAssay AID1199 (EPA DSSTox, 2008)
Active and inactive are the calls of the source.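 The calls were made as follows: active = a tumour-causing dose and a tumour site recorded for mice in at least one sex group; inconclusive = only government mouse studies exist and were judged inadequate; inactive = mouse studies exist but none gave tumours.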

System: mouse carcinogenicity bioassay, TD50 from CPDB
Experiment: DSSTox (CPDBAS) Carcinogenic Potency Database Summary Mouse Bioassay Results
Conditions: for outcome: TD50_Mouse_Note: no positive results
In short: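 Chronic long-term mouse cancer bioassays from literature and NCI/NTP, compiled per sex. TD50 is the standardized carcinogenic potency, using the most positive experiment per sex-species; target sites follow author opinion.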

[1] = TargetSites_Mouse_Female: no positive results
[2] = TargetSites_Mouse_Female: liver
[3] = TD50_Mouse_Note: TD50 is harmonic mean of more than one positive test, TargetSites_Mouse_Female: liver
[4] = TD50_Mouse_Note: TD50 is harmonic mean of more than one positive test, TargetSites_Mouse_Female: no positive results

Compound: O=C1C2CC=CCC2C(=O)N1SC(Cl)(Cl)Cl (configuration not stated)
- Potency (TD50_Mouse_Note: TD50 is harmonic mean of more than one positive test, TargetSites_Mouse_Female: small intestine): 7.02 mmol/kg/day

Compound: O=[N+]([O-])c1cc([N+](=O)[O-])c(Cl)c(Cl)c1Cl
- outcome [1]: inactive; no positive results

Compound: [O-][Cl+]O
- outcome [1]: inactive; no positive results

Compound: CCCCNC(N)=O
- outcome [1]: inactive; no positive results

Compound: O=CNNc1nc(-c2ccc([N+](=O)[O-])o2)cs1
- Potency (TD50_Mouse_Note: TD50 is harmonic mean of more than one positive test, TargetSites_Mouse_Female: hematopoietic system, stomach): 0.0425 mmol/kg/day

Compound: O=C/C=C/O
- Potency [2]: 0.15 mmol/kg/day

Compound: C#CC(C)(C)NC(=O)c1cc(Cl)cc(Cl)c1
- Potency: 0.547 mmol/kg/day

Compound: CCCCN(CC)C(=O)SCCC
- outcome [1]: inactive; no positive results

Compound: Cc1ncc([N+](=O)[O-])n1CCO
- Potency (TD50_Mouse_Note: TD50 is harmonic mean of more than one positive test, TargetSites_Mouse_Female: hematopoietic system, lung): 2.96 mmol/kg/day

Compound: COC1=CC(=O)C[C@@H](C)[C@]12Oc1c(Cl)c(OC)cc(OC)c1C2=O
- Potency (TD50_Mouse_Note: TD50 is harmonic mean of more than one positive test, TargetSites_Mouse_Female: mammary gland): 0.0391 mmol/kg/day

Compound: CCOC(=O)[C@H](CCc1ccccc1)N[C@@H](C)C(=O)N1Cc2ccccc2C[C@H]1C(=O)O
- outcome [1]: inactive; no positive results

Compound: ClC(Cl)(Cl)C(Cl)(Cl)Cl
- Potency [3]: 1.43 mmol/kg/day

Compound: O=Nc1ccc(Nc2ccccc2)cc1
- Potency [1]: 1.72 mmol/kg/day

Compound: ClCc1ccccn1
- outcome [1]: inactive; no positive results

Compound: COc1cc(CNC(=O)CCCC/C=C/C(C)C)ccc1O
- Potency (TD50_Mouse_Note: TD50 is harmonic mean of more than one positive test, no positive results are statistically significant, TargetSites_Mouse_Female: large intestine): 0.547 mmol/kg/day

Compound: CCCC[C@H](C)[C@@H](OC(=O)C[C@H](CC(=O)O)C(=O)O)[C@@H](C[C@H](C)C[C@@H](O)CCCC[C@@H](O)C[C@H](O)[C@H](C)N)OC(=O)C[C@H](CC(=O)O)C(=O)O
- Potency [2]: 0.00941 mmol/kg/day

Compound: CCc1ccc(C(c2ccc(CC)cc2)C(Cl)Cl)cc1
- outcome [1]: inactive; no positive results

Compound: CC(N)=O
- Potency [1]: 51 mmol/kg/day

Compound: C=C1C(C)(C)[C@@]2(Cl)C(Cl)[C@]1(Cl)C(Cl)(Cl)C2(Cl)Cl (some centres not stated)
- Potency [4]: 0.00234 mmol/kg/day

Compound: OC[C@H]1O[C@@](CO)(O[C@H]2O[C@H](CO)[C@@H](O)[C@H](O)[C@H]2O)[C@@H](O)[C@@H]1O
- outcome [1]: inactive; no positive results

Compound: CC(C)C/C=N/N(C)C=O
- Potency (TD50_Mouse_Note: TD50 is harmonic mean of more than one positive test, TargetSites_Mouse_Female: gall bladder, liver, lung): 0.0157 mmol/kg/day

Compound: NNCCc1ccccc1
- Potency (TargetSites_Mouse_Female: lung, vascular system): 0.0623 mmol/kg/day

Compound: CC1=CC(=O)NS(=O)(=O)O1
- outcome [1]: inactive; no positive results

Compound: c1ccc2c(c1)Oc1ccccc1O2
- outcome [1]: inactive; no positive results

Compound: CC/C(=C(/CC)c1ccc(O)cc1)c1ccc(O)cc1
- Potency (TD50_Mouse_Note: TD50 is harmonic mean of more than one positive test, TargetSites_Mouse_Female: mammary gland, ovary, pituitary gland, thyroid gland, uterus): 0.000146 mmol/kg/day

Compound: Nc1ccc(Cl)c(N)c1
- Potency [2]: 8.63 mmol/kg/day

Compound: CC(C)NCC(O)c1ccc(NS(C)(=O)=O)cc1 (configuration not stated)
- outcome [1]: inactive; no positive results

Compound: Nc1ccc(-c2ccc(N)c(O)c2)cc1O
- Potency (TD50_Mouse_Note: no positive results are statistically significant): 1.22 mmol/kg/day

Compound: O=P1(N(CCCl)CCCl)NCCCO1 (configuration not stated)
- Potency (TD50_Mouse_Note: positive test results only by intraperitoneal or intravenous injection, TD50 is harmonic mean of more than one positive, TargetSites_Mouse_Female: hematopoietic system, lung): 0.0228 mmol/kg/day

Compound: CN(N)C=O
- Potency (TD50_Mouse_Note: TD50 is harmonic mean of more than one positive test, greater than ten-fold variation among TD50 values for positive res, TargetSites_Mouse_Female: gall bladder, liver, lung, vascular system): 0.0185 mmol/kg/day

Compound: Cc1ccccc1N
- Potency (TD50_Mouse_Note: TD50 is harmonic mean of more than one positive test, TargetSites_Mouse_Female: liver, vascular system): 5.85 mmol/kg/day

Compound: CCOC(=O)C(O)(c1ccc(Cl)cc1)c1ccc(Cl)cc1
- Potency (TD50_Mouse_Note: TD50 is harmonic mean of more than one positive test, greater than ten-fold variation among TD50 values for positive res, TargetSites_Mouse_Female: liver): 0.289 mmol/kg/day

Compound: CCCCNN
- Potency (TD50_Mouse_Note: TD50 is harmonic mean of more than one positive test, TargetSites_Mouse_Female: lung): 0.0971 mmol/kg/day

Compound: CN(C)CCOC(C)(c1ccccc1)c1ccccn1 (configuration not stated)
- Potency (TD50_Mouse_Note: TD50 is harmonic mean of more than one positive test, TargetSites_Mouse_Female: liver, thyroid gland): 0.538 mmol/kg/day

Compound: COc1cc(N=Nc2ccccc2)ccc1N
- Potency [2]: 0.265 mmol/kg/day

Compound: ClC/C=C/CCl
- Potency (TD50_Mouse_Note: positive test results only by intraperitoneal or intravenous injection, TargetSites_Mouse_Female: peritoneal cavity): 0.0122 mmol/kg/day

Compound: NNCCO
- Potency [4]: 0.00522 mmol/kg/day

Compound: CC1=CC(=O)CC(C)(C)C1
- outcome [1]: inactive; no positive results

Compound: O=C(O[C@@H]1Cc2c(O)cc(O)cc2O[C@@H]1c1cc(O)c(O)c(O)c1)c1cc(O)c(O)c(O)c1
- outcome: inactive; no positive results

Compound: CCCl
- Potency (TargetSites_Mouse_Female: uterus): 28.1 mmol/kg/day

Compound: CCN(CC)C(=S)S[Se](SC(=S)N(CC)CC)(SC(=S)N(CC)CC)SC(=S)N(CC)CC
- Potency [1]: 0.00222 mmol/kg/day

Compound: Cc1cccc(C)c1
- outcome [1]: inactive; no positive results

Compound: C[C@@H]1Cc2c(Cl)cc(C(=O)N[C@@H](Cc3ccccc3)C(=O)O)c(O)c2C(=O)O1
- Potency [3]: 0.0159 mmol/kg/day

Compound: Cc1cc(N=Nc2ccccc2C)ccc1N
- outcome: inactive; no positive results

Compound: CBr
- outcome [1]: inactive; no positive results

Compound: ClC1C2(Cl)C3C4C5OC5C5C4C1(Cl)C(Cl)(C53)C2(Cl)Cl (configuration not stated)
- outcome [1]: inactive; no positive results

Compound: C=CCN=C=S
- outcome [1]: inactive; no positive results
